Reference: US20160115446A1, “Technologies, Methods, and Products of Small Molecule Directed Tissue and Organ Regeneration from Human Pluripotent Stem Cells” (SAN DIEGO REGENERATIVE MEDICINE INSTITUTE, priority 2014, published 2016)

System: undifferentiated hESCs
Assay: Cardiac induction of undifferentiated hESCs in defined culture by NAM (marker immunostaining, beating cardiomyocytes)
Type: cell-based, human
Source text: (b) Cardiac fate switch direct of the pluripotent state of hESCs induced by nicotinamide. NAM-induced Oct-4-negative cells began to express the cardiac specific transcription factor (Csx) Nkx2.5 (green) and alpha-actinin (red), consistent with early cardiac differentiation. […] All cells are indicated by DAPI staining of their nuclei (blue). Insets at the top better visualize individual cells at higher-magnification.
(Stage 1—Human Cardiomesodermal Cells) (FIGS. 1; 2a, b). Increased intensity of Nkx2.5 was usually observed in areas of the colonies where cells began to pile up (FIG. 2b). These differentiating hESCs then formed cardioblasts that uniformly expressed Nkx2.5 in suspension (Stage 2—Human Cardiac Precursor Cells) (FIGS. 1; 3a). […] (FIGS. 1, 3b). Cells within the beating cardiospheres expressed markers characteristic of cardiomyocytes (FIG. 3b). The cardiomyocytes can retain their strong contractility for over 3 months. Electrical profiles of the cardiomyocytes confirmed their contractions to be strong rhythmic impulses reminiscent of the p-QRS-T-complexes seen from body surface electrodes in clinical electrocardiograms (FIG. 3c). Cardiac specific transcription factor (Csx) Nkx2.5 is an evolutionally conserved homeobox transcription factor indispensable for normal cardiac development. The onset and pattern of early Nkx2.5 expression roughly coincide with the timing and area of cardiac specification, and Nkx2.5 gene continues to be expressed through development in the heart. Expression of Nkx2.5 is the earliest marker for heart precursor cells in all vertebrates so far examined and is essential for proper cardiac septation and formation/maturation of electrical conduction system.

NC(=O)c1cccnc1 [NAM, nicotinamide]
expression of cardiac-specific transcription factor Csx/Nkx2.5 (NAM 10 mM, defined culture): began expressing the earliest marker for heart precursor, Csx/Nkx2.5
expression of pluripotence-associated markers (e.g., Oct-4) (NAM 10 mM, defined culture, all the cells within the colony): down-regulated the expression of pluripotence-associated markers
appearance of beating cardiomyocytes (cardioblasts attached, further NAM treatment, after withdrawal of NAM, vs untreated control): drastic increase in efficiency
